Article PMC3129627 (Organic letters, 2011)

Assays:
human AChE = human AChE (Homo sapiens, UniProt P22303); test: Inhibition of human AChE, modified Ellman assay; assay type: biochemical; conditions: racemic (±) synthetic compounds
[1] = target: acetyl cholinesterase (AChE) from the housefly (CSMA strain); conditions: natural product; cited from earlier work
[2] = target: acetyl cholinesterase (AChE) from the brown plant hopper; conditions: natural product; cited from earlier work

Sequence of human AChE (P22303 32-614): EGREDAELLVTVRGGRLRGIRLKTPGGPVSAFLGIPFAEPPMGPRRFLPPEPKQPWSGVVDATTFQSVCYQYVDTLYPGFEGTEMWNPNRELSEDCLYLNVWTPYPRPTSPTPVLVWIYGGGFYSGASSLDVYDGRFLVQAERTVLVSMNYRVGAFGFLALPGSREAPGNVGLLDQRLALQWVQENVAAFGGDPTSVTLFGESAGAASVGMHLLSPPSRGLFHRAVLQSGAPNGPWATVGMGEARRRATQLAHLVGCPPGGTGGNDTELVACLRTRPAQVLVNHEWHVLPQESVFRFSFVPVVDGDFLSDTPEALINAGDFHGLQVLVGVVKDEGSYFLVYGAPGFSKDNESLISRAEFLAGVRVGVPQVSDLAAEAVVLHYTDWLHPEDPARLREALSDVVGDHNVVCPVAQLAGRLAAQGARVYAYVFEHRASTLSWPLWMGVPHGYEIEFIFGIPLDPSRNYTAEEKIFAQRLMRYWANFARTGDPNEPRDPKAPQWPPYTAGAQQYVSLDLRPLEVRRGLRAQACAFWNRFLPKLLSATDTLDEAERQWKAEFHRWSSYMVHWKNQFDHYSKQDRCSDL

CO[P@]1(=O)OC[C@H]2COC(=O)C2=C(C)O1 [compound 1, Cyclophostin]
IC50 (human AChE): ~40 nM | IC50 [1]: 0.76 nM | IC50 [2]: 0.76 nM
